From the NIST ThermoML archive (doi:10.1021/je4000845)
Numbers after ± are expanded uncertainties.

Conditions: Crystal; visual observation

Normal melting temperature: 174.1 ± 1 °C
SMILES: Nc1cccc(C(=O)O)c1 [3-aminobenzoic acid]
